Numbering of substitutions follows the chain as printed. Like-named read-outs stand apart in the source and are kept apart here.
Experiments:
[1] = molecular target: T1, E. blattae 1,3-propanediol dehydrogenase (PDD), wild type, strain ATCC 33429 (Eb_429T), SEQ ID NO: 6 (Shimwellia blattae, UniProt Q3ZL59); assay: Kinetics of wild-type 1,3-propanediol dehydrogenase (PDD), partially purified from E. blattae ATCC 33429; format: biochemical, Escherichia blattae; conditions: wild type strain 33429, pooled column fractions with 1 mM DTT
T1 sequence (Q3ZL59 1-387): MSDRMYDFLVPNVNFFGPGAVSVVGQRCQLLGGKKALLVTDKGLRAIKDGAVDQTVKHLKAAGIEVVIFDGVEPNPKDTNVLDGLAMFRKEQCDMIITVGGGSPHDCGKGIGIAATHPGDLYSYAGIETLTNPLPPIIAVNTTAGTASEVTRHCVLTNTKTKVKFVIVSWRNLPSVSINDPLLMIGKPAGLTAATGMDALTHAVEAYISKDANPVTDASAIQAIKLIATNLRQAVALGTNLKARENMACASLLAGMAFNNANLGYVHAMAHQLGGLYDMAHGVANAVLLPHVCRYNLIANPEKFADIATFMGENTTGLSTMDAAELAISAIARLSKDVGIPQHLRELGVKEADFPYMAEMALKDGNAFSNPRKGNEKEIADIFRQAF
Experimental: (§1) Strains—Wild type ATCC 33429, E. blattae comprising the mutant PDD ATCC accession number PTA-92.
(§2) Growth—Cells were grown in a complex medium at 30C 500 ml in a 2800 ml fernbach with shaking at 225 rpm for 20 hr. The medium consists of KH2PO4, 5.4 g/L; (NH4)2SO4, 1.2 g/L; MgSO47H2O, 0.4 g/L; yeast extract, 2.0 g/L; tryptone, 2.0 g/L; and glycerol, 9.2 g/L in tap water. The pH was adjusted to 7.1 with KOH before autoclaving (Honda, et al., 1980, J. Bacteriol, 143:1458-1465).
(§3) Extract prep—Cells were harvested by centrifugation with care to avoid anaerobic conditions. Pellets were resuspended in 100 mM Tricine pH 8.2 containing 50 mM KCl and 1 mM DTT. Cells were disrupted by passage through a French pressure cell. Crude extracts were clarified by centrifugation at 20 K×g for 20 min followed by 100 K×g for 1 hr to yield the high speed supernatant (HSS) fraction.
(§4) Assays—the assay for PDD was performed as described by Johnson, E. A. et al., 1987, J. Bacteriol. 169:2050-2054.
Partial purification of PDD—HSS was separated on a 16×100 Poros 20HQ column. The buffers were A, 60 mM HEPES, pH 7.4 containing 100 uM MnCl and B, A buffer containing 500 mM KCl. The column was loaded and developed at 10 ml/min. The gradient was 10 CV wash. A linear gradient to 70% B in 10 CV, and 1 CV to 100% B. The activity was detected in the very early fractions of the gradient. […]

[2] = molecular target: T2, E. blattae 1,3-propanediol dehydrogenase (PDD), mutant His 105 to Leu, ATCC PTA-92 (Eb_GEBT), SEQ ID NO: 2 (Shimwellia blattae, UniProt Q3ZL59, H105L); assay: Kinetics of mutant 1,3-propanediol dehydrogenase (PDD), partially purified from E. blattae 33429 derivative PTA-92; format: biochemical, Escherichia blattae
T2 construct: concentrated on PM30 membrane
T2 sequence (Q3ZL59 1-387 H105L): T1 sequence (Q3ZL59 1-387) with H105L
Experimental: as §1, §2, §3, §4
Partial purification of PDD—HSS was separated on a 16×100 Poros 20HQ column. The buffers were A, 60 mM HEPES, pH 7.4 containing 100 uM MnCl and B, A buffer containing 500 mM KCl. The column was loaded and developed at 10 ml/min. The gradient was 10 CV wash. A linear gradient to 70% B in 10 CV, and 1 CV to 100% B. The activity was detected in the very early fractions of the gradient. Pooled column fractions of the 33429 strain were used as collected for assays after the addition of additional DTT to 1 mM. The active fractions from the E. blattae 33429 derivative strain assigned designation PTA-92 were pooled and concentrated on a PM30 membrane and used as concentrated after the addition of additional 1 mM DTT.

SMILES | Km ([1]; read-out: Km (NAD)) [mM] | Km for NAD (change in words) ([2]; mutant PDD) | Km ([1]; read-out: Km (Propanediol)) [mM] | Km for 1,3-propanediol (change in words) ([2]; mutant PDD) | Km of the mutant PDD relative to Km of wild-type PDD for 1,3-propanediol ([2]; mutant PDD vs wild-type PDD)
NC(=O)c1ccc[n+]([C@@H]2O[C@H](COP(=O)([O-])OP(=O)(O)OC[C@H]3O[C@@H](n4cnc5c(N)ncnc54)[C@H](O)[C@@H]3O)[C@@H](O)[C@H]2O)c1 [NAD] | 0.057 | altered |  |  | 
OCCCO [1,3-propanediol] |  |  | 28 | altered | about 3 times

— US6558933B2, “Mutant 1,3-propanediol dehydrogenase” (Genencor International, INC, priority 1999, dated 2003)
